According to ChEMBL document CHEMBL4304777 (Eur J Med Chem, 2019):

Tests used:
HCT-116 [1] = test: Cytotoxicity against human HCT116 cells assessed as reduction in cell viability incubated for 72 hrs by SRB assay; assay type: functional, cell-based; details: HCT-116, 72 h
[2] = target: RAC-alpha serine/threonine-protein kinase (Homo sapiens, UniProt P31749); test: Inhibition of Akt1 (unknown origin) expressed in Escherichia coli using peptide as substrate incubated for 1 hr by HTRF assay
OVCAR-8 = test: Cytotoxicity against human OVCAR8 cells assessed as reduction in cell viability incubated for 72 hrs by SRB assay; assay type: functional, cell-based; details: OVCAR-8, 72 h
U-937 = test: Antiproliferative activity against human U937 cells assessed as reduction in cell viability; assay type: functional, cell-based
HCT-116 [3] = test: Induction of apoptosis in human HCT116 cells assessed as apoptotic cells at 0.4 uM incubated for 72 hrs by annexin V - FITC and propidium iodide staining based flow cytometry (reference value: 6.99 %); assay type: functional
MV4-11 = test: Antiproliferative activity against human MV4-11 cells assessed as reduction in cell viability; assay type: functional, cell-based
MOLT-4 = test: Antiproliferative activity against human MOLT4 cells assessed as reduction in cell viability; assay type: functional, cell-based
HCT-116 [4] = test: Induction of apoptosis in human HCT116 cells assessed as apoptotic cells at 2 uM incubated for 72 hrs by annexin V - FITC and propidium iodide staining based flow cytometry (reference value: 6.99 %); assay type: functional
[5] = Antiproliferative activity against human CEM/C1 cells assessed as reduction in cell viability; assay type: functional, cell-based
MM1.S [6] = test: Antiproliferative activity against human MM1S cells assessed as reduction in cell viability; assay type: functional, cell-based
RPMI-8226 = test: Antiproliferative activity against human RPMI8226 cells assessed as reduction in cell viability; assay type: functional, cell-based
HCT-116 [7] = test: Induction of apoptosis in human HCT116 cells assessed as apoptotic cells at 10 uM incubated for 72 hrs by annexin V - FITC and propidium iodide staining based flow cytometry (reference value: 6.99 %); assay type: functional
K562 = test: Antiproliferative activity against human K562 cells assessed as reduction in cell viability; assay type: functional, cell-based
JVM-2 = test: Antiproliferative activity against human JVM2 cells assessed as reduction in cell viability; assay type: functional, cell-based
HuT78 = test: Antiproliferative activity against human HUT78 cells assessed as reduction in cell viability; assay type: functional, cell-based
[8] = Tmax in Sprague-Dawley rat at 10 mg/kg, po measured up 48 hrs by LC-MS/MS analysis; assay type: ADME, organism-based; details: in vivo
[9] = Stability in human liver microsomes assessed as remaining compound at 100 ug/ml incubated for 1.5 hrs by LC-MS analysis; assay type: ADME, Microsome; details: read-out: Stability
CCRF-CEM = test: Antiproliferative activity against human CCRF-CEM cells assessed as reduction in cell viability; assay type: functional, cell-based
[10] = AUC (0 to t) in Sprague-Dawley rat at 10 mg/kg, po measured up 48 hrs by LC-MS/MS analysis; assay type: ADME, organism-based; details: in vivo
hERG (KCNH2) = hERG (KCNH2) (Homo sapiens, UniProt Q12809); test: Inhibition of human ERG expressed in HEK293 cells at 3 uM at - 40 mV holding potential by whole cell patch clamp assay relative to control; assay type: cell-based; details: HEK293 cells expressing human ERG
Chain of hERG (KCNH2) (Q12809 whole entry): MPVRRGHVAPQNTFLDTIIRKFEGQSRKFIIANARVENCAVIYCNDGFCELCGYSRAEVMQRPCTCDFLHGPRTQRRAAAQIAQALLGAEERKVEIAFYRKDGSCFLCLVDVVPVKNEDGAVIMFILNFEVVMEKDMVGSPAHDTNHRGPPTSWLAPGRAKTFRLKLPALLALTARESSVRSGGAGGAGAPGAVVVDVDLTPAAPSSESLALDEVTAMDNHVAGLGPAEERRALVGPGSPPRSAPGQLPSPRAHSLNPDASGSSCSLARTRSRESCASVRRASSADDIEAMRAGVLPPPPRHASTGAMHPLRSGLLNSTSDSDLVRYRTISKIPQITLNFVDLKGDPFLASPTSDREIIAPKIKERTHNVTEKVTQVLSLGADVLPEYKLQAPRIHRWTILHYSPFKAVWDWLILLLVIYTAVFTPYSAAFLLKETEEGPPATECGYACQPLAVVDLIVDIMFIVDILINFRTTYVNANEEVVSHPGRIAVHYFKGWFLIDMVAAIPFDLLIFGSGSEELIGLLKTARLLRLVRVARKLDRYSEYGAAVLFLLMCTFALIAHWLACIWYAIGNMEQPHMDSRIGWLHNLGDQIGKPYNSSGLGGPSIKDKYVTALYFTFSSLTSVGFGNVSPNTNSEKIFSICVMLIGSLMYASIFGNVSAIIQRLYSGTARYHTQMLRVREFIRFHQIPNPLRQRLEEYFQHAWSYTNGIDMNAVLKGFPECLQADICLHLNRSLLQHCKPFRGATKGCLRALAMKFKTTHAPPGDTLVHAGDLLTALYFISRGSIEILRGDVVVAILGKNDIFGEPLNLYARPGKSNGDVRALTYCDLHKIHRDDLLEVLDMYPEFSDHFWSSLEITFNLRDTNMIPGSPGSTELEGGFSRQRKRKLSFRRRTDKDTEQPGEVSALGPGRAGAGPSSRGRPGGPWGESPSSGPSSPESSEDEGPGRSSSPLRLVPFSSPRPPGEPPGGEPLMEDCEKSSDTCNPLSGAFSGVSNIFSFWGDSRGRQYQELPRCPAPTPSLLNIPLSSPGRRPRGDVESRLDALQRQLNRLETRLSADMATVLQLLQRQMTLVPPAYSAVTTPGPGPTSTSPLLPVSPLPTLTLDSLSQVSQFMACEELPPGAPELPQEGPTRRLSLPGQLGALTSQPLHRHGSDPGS

MM1.S [11] = test: Antitumor activity against human MM1S cells xenografted in BALB/c mouse assessed as tumor growth inhibition at 30 mg/kg, po administered for 14 days; assay type: functional; details: 336 h, read-out: TGI
[12] = Half life in Sprague-Dawley rat at 2 mg/kg, iv measured up 48 hrs by LC-MS/MS analysis; assay type: ADME, organism-based; details: in vivo
[13] = Stability in mouse liver microsomes assessed as remaining compound at 100 ug/ml incubated for 1.5 hrs by LC-MS analysis; assay type: ADME, Microsome; details: read-out: Stability
[14] = Half life in Sprague-Dawley rat at 10 mg/kg, po measured up 48 hrs by LC-MS/MS analysis; assay type: ADME, organism-based; details: in vivo
[15] = Stability in dog liver microsomes assessed as remaining compound at 100 ug/ml incubated for 1.5 hrs by LC-MS analysis; assay type: ADME, Canis lupus familiaris, Microsome; details: read-out: Stability
[16] = Cmax in Sprague-Dawley rat at 2 mg/kg, iv measured up 48 hrs by LC-MS/MS analysis; assay type: ADME, organism-based; parameters: dose 2 mg/kg, route intravenous; details: in vivo
[17] = Stability in rat liver microsomes assessed as remaining compound at 100 ug/ml incubated for 1.5 hrs by LC-MS analysis; assay type: ADME, Microsome; details: read-out: Stability
[18] = AUC (0 to infinity) in Sprague-Dawley rat at 10 mg/kg, po measured up 48 hrs by LC-MS/MS analysis; assay type: ADME, organism-based; parameters: dose 10 mg/kg, time infinity, route oral; details: in vivo
[19] = Cmax in Sprague-Dawley rat at 10 mg/kg, po measured up 48 hrs by LC-MS/MS analysis; assay type: ADME, organism-based; parameters: dose 10 mg/kg, route oral; details: in vivo
[20] = AUC (0 to t) in Sprague-Dawley rat at 2 mg/kg, iv measured up 48 hrs by LC-MS/MS analysis; assay type: ADME, organism-based; details: in vivo
MM1.S [21] = test: Antitumor activity against human MM1S cells xenografted in BALB/c mouse assessed as tumor growth inhibition at 15 mg/kg, po administered for 14 days; assay type: functional; details: 336 h, read-out: TGI
[22] = Tmax in Sprague-Dawley rat at 2 mg/kg, iv measured up 48 hrs by LC-MS/MS analysis; assay type: ADME, organism-based; details: in vivo
[23] = Stability in human plasma assessed as remaining compound at 100 ug/ml incubated for 1.5 hrs by LC-MS analysis; assay type: ADME, cell-free; details: read-out: Stability
[24] = Stability in rat plasma assessed as remaining compound at 100 ug/ml incubated for 1.5 hrs by LC-MS analysis; assay type: ADME, cell-free; details: read-out: Stability
[25] = Antiproliferative activity against human Mino cells assessed as reduction in cell viability; assay type: functional, cell-based
[26] = Oral bioavailability in Sprague-Dawley rat at 10 mg/kg, measured up 48 hrs by LC-MS/MS analysis; assay type: ADME, organism-based; details: in vivo
[27] = AUC (0 to infinity) in Sprague-Dawley rat at 2 mg/kg, iv measured up 48 hrs by LC-MS/MS analysis; assay type: ADME, organism-based; parameters: dose 2 mg/kg, time infinity, route intravenous; details: in vivo
[28] = Toxicity in BALB/c mouse xenografted with human MM1S cells assessed as body weight loss at 15 to 30 mg/kg, po administered once daily for 14 days; assay type: organism-based; details: in vivo, 336 h

Chain of RAC-alpha serine/threonine-protein kinase (P31749 whole entry): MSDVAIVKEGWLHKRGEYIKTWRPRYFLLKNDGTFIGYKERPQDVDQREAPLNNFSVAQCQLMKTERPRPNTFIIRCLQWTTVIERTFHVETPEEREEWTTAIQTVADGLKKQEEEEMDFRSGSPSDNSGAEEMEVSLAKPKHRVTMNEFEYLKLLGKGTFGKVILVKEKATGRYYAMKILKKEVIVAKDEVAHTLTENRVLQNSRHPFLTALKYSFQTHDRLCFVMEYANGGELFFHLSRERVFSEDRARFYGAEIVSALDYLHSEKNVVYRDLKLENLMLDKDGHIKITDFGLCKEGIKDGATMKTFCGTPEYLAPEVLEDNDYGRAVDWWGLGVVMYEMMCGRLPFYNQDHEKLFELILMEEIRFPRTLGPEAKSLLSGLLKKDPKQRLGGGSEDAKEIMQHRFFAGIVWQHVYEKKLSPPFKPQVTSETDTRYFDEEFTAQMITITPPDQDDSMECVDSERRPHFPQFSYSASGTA

Cn1ncc(-c2ccncc2)c1-c1ccc(C(=O)N[C@@H]2CNCC[C@H]2c2cccc(F)c2)s1
IC50 (HCT-116 [1]): 24 µM
IC50 [2]: 0.0999 µM
IC50 (OVCAR-8): 28 µM

Cl.Cn1ncc(Cl)c1-c1ccc(C(=O)N[C@@H]2CNCC[C@H]2c2cccc(F)c2)s1
IC50 (U-937): 0.078 µM
IC50 (HCT-116 [1]): 0.44 µM
Activity (HCT-116 [3]): 11.66%
IC50 (MV4-11): 0.135 µM
IC50 (MOLT-4): 0.05 µM
Activity (HCT-116 [4]): 22.68%
IC50 [5]: 0.028 µM
IC50 (MM1.S [6]): 0.021 µM
IC50 (RPMI-8226): 0.263 µM
Activity (HCT-116 [7]): 89.62%
IC50 (K562): > 3 µM
IC50 (JVM-2): 0.208 µM
IC50 (HuT78): 0.298 µM
IC50 (OVCAR-8): 0.23 µM

Cn1ncc(Cl)c1-c1ccc(C(=O)N[C@@H]2CNCC[C@H]2c2ccc(Cl)c(C(F)(F)F)c2)s1
IC50 (HCT-116 [1]): 1.41 µM
IC50 [2]: 0.0652 µM
IC50 (OVCAR-8): 0.64 µM

Cn1nccc1-c1ccc(C(=O)N[C@@H]2CNCC[C@H]2c2ccc(Cl)cc2)s1
IC50 (HCT-116 [1]): 8.87 µM
IC50 [2]: 0.0102 µM
IC50 (OVCAR-8): 1.39 µM

C=Cc1cnn(C)c1-c1ccc(C(=O)N[C@@H]2CNCC[C@H]2c2cccc(F)c2)s1
IC50 (HCT-116 [1]): 6.85 µM
IC50 [2]: 0.0469 µM
IC50 (OVCAR-8): 3.19 µM

Cn1ncc(Cl)c1-c1csc(C(=O)N[C@@H]2CNCC[C@H]2c2ccc(Cl)cc2)c1
IC50 (HCT-116 [1]): 1.21 µM
IC50 [2]: 0.0137 µM
IC50 (OVCAR-8): 5.69 µM

Cc1cnn(C)c1-c1ccc(C(=O)N[C@@H]2CNCC[C@H]2c2cccc(F)c2)s1
IC50 (HCT-116 [1]): 1.78 µM
IC50 [2]: 0.009 µM
IC50 (OVCAR-8): 1.74 µM

Cn1ncc(Br)c1-c1ccc(C(=O)N[C@@H]2CNCC[C@H]2c2cccc(F)c2)s1
IC50 (HCT-116 [1]): 0.89 µM
IC50 [2]: 0.00546 µM

Cl.Cn1ncc(Cl)c1-c1csc(C(=O)N[C@@H]2CNCC[C@H]2c2cccc(F)c2)c1
IC50 (U-937): 0.188 µM
Tmax [8]: 2.75 h
remaining at 1.5 h, 100 ug/ml [9]: 88.3%
IC50 (CCRF-CEM): 0.008 µM
IC50 (HCT-116 [1]): 0.95 µM
Activity (HCT-116 [3]): 7.73%
AUC(0-t) at 48 h [10]: 3.89 µg·h/mL
IC50 (MV4-11): 0.441 µM
IC50 [2]: 0.00126 µM
IC50 (MOLT-4): 0.014 µM
inhibition at 3 µM (hERG (KCNH2)): 40%
inhibition in vivo at 30 mg/kg (MM1.S [11]): 42.1%
half-life [12]: 3.52 h
Activity (HCT-116 [4]): 8.69%
remaining at 1.5 h, 100 ug/ml [13]: 82.7%
half-life [14]: 4.74 h
remaining at 1.5 h, 100 ug/ml [15]: 81.3%
IC50 [5]: 0.007 µM
IC50 (MM1.S [6]): 0.002 µM
Cmax [16]: 1.44 µg/mL
remaining at 1.5 h, 100 ug/ml [17]: 63.7%
AUC(0-inf) [18]: 3.94 µg·h/mL
Cmax [19]: 0.423 µg/mL
AUC(0-t) at 48 h [20]: 1.48 µg·h/mL
IC50 (RPMI-8226): 0.049 µM
Activity (HCT-116 [7]): 24.58%
inhibition in vivo at 15 mg/kg (MM1.S [21]): 40.7%
IC50 (K562): > 3 µM
Tmax [22]: 4.98 min
remaining at 1.5 h, 100 ug/ml [23]: > 99%
remaining at 1.5 h, 100 ug/ml [24]: > 99%
IC50 [25]: 0.531 µM
bioavailability [26]: 52%
AUC(0-inf) [27]: 1.51 µg·h/mL
Activity [28]: Toxic

Cn1nccc1-c1ccc(C(=O)N[C@@H]2CNCC[C@H]2c2cccc(F)c2)s1
IC50 (HCT-116 [1]): 1.37 µM
IC50 [2]: 0.0106 µM
IC50 (OVCAR-8): 1.59 µM

Cn1ncc(Cl)c1-c1csc(C(=O)N[C@@H]2CNCC[C@H]2c2ccc(Cl)c(C(F)(F)F)c2)c1
IC50 (HCT-116 [1]): 1.85 µM
IC50 [2]: 0.0353 µM
IC50 (OVCAR-8): 0.58 µM

Cn1ncc(CO)c1-c1ccc(C(=O)N[C@@H]2CNCC[C@H]2c2cccc(F)c2)s1
IC50 (HCT-116 [1]): 7.42 µM
IC50 [2]: 0.0622 µM
IC50 (OVCAR-8): 7.17 µM

Cn1ncc(Cl)c1-c1cc(C(=O)N[C@H](CN)Cc2ccc(F)c(F)c2)oc1Cl [UPROSERTIB]
IC50 (U-937): 0.101 µM
IC50 (HCT-116 [1]): 1.75 µM
IC50 (MV4-11): 0.635 µM
IC50 (MOLT-4): 0.066 µM
inhibition in vivo at 30 mg/kg (MM1.S [11]): 36.8%
IC50 [5]: 0.03 µM
IC50 (MM1.S [6]): 0.032 µM
IC50 (RPMI-8226): 0.538 µM
IC50 (K562): > 3 µM
IC50 (JVM-2): 0.293 µM
IC50 (HuT78): 0.378 µM
IC50 (OVCAR-8): 0.54 µM

Cn1ncc(-c2ccccc2)c1-c1ccc(C(=O)N[C@@H]2CNCC[C@H]2c2cccc(F)c2)s1
IC50 (HCT-116 [1]): 4.42 µM
IC50 [2]: 0.0704 µM
IC50 (OVCAR-8): 2.51 µM

Cn1ncc(C(=O)O)c1-c1ccc(C(=O)N[C@@H]2CNCC[C@H]2c2cccc(F)c2)s1
IC50 (HCT-116 [1]): > 50 µM
IC50 [2]: 0.101 µM
IC50 (OVCAR-8): > 50 µM

CCc1cnn(C)c1-c1ccc(C(=O)N[C@@H]2CNCC[C@H]2c2cccc(F)c2)s1
IC50 (HCT-116 [1]): 2.83 µM
IC50 [2]: 0.0489 µM
IC50 (OVCAR-8): 2.7 µM

Cn1ncc(Cl)c1-c1ccc(C(=O)N[C@@H]2CNCC[C@H]2c2ccc(Cl)cc2)s1
IC50 (HCT-116 [1]): 3.02 µM
IC50 [2]: 0.0018 µM
IC50 (OVCAR-8): 1.47 µM
